Legend:
Assay in all cases: absorbance of PHP at […] nm
Type in all cases: biochemical
CotA = biological target: T1, CotA (Bacillus subtilis, UniProt H8WGE7); conditions: […] enzyme, with or without DHA, […] °C, […] min
T1 construct: recombinant from Escherichia coli, purified to homogeneity
T1 sequence (H8WGE7 1-513): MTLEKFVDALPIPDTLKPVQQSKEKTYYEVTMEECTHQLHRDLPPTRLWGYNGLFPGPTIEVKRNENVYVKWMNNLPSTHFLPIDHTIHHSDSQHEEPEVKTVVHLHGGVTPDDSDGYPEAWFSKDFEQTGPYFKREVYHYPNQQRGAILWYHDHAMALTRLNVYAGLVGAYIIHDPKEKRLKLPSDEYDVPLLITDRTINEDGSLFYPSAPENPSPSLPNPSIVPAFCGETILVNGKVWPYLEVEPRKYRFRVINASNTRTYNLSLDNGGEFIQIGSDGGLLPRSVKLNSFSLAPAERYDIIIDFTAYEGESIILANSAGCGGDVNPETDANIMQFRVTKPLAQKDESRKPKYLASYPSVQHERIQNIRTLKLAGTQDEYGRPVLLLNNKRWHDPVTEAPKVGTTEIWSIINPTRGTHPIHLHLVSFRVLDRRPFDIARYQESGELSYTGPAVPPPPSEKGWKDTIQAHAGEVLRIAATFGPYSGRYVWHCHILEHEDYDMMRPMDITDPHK

AnAA13 = biological target: T2, AnAA13 (Aspergillus nidulans, UniProt Q5B1W7); conditions: 1 µM Cu-loaded enzyme, with or without DHA, 40 °C, 30 min
T2 construct: gene aasA; gift from Novozymes, purified to homogeneity, loaded with CuCl2
T2 sequence (Q5B1W7 19-385): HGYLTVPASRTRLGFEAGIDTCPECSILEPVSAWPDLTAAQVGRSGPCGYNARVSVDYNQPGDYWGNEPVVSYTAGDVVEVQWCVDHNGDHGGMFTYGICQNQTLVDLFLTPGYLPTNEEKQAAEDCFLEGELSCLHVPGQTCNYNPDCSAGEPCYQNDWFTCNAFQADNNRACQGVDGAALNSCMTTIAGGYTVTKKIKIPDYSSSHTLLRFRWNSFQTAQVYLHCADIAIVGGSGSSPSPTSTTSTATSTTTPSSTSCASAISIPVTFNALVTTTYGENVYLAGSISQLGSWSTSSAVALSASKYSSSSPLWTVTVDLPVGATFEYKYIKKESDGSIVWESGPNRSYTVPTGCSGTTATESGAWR

SmAA10 = biological target: T3, SmAA10 (Serratia marcescens, UniProt P9WEM3); conditions: 1 µM Cu-loaded enzyme, with or without DHA, 40 °C, 30 min
T3 construct: gene CBP21; expressed using LyGo platform, purified to homogeneity, loaded with CuCl2
T3 sequence (P9WEM3 28-197): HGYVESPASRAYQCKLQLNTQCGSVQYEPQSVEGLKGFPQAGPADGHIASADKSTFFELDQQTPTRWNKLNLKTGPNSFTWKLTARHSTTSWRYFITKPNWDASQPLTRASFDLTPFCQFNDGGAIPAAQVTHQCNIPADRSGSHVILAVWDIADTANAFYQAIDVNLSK

TtAA9 = biological target: T4, TtAA9 (Thermothielavioides terrestris, UniProt D0VWZ9); conditions: 1 µM Cu-loaded enzyme, with or without DHA, 40 °C, 30 min
T4 construct: gene gh61e; gift from Novozymes, purified to homogeneity, loaded with CuCl2
T4 sequence (D0VWZ9 entry or part of it): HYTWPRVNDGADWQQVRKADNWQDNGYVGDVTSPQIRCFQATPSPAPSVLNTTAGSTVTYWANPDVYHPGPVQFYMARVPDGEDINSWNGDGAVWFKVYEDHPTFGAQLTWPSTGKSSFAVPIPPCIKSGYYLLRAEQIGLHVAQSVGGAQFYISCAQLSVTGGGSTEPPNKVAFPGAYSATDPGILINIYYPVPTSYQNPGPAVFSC

MtL = biological target: T5, MtL (Thermothelomyces thermophilus, UniProt G2QFD0); conditions: 1 µM enzyme, with or without DHA, 40 °C, 30 min
T5 construct: gene LMCO1; gift from Novozymes, purified to homogeneity
T5 sequence (G2QFD0 21-650): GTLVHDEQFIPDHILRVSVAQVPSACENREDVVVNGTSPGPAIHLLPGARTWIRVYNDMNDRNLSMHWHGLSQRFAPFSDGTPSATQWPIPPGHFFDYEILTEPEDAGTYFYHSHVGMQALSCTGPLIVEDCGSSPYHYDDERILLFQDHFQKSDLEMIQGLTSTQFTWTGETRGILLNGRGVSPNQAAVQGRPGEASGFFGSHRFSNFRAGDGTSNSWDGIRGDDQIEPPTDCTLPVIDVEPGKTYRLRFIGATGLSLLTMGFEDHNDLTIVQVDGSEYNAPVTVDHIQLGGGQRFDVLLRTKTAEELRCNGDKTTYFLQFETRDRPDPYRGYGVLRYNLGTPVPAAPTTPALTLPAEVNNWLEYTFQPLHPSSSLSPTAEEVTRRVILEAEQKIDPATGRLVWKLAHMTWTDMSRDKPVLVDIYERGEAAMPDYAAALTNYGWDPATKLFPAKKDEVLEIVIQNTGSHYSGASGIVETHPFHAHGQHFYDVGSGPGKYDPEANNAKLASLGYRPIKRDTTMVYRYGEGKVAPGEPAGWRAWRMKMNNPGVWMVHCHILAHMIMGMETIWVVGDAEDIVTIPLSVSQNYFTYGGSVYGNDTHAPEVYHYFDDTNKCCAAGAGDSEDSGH

TfAA10A = biological target: T6, TfAA10A (Thermobifida fusca, UniProt Q47QG3); conditions: 1 µM Cu-loaded enzyme, with or without DHA, 40 °C, 30 min
T6 construct: gene Tfu_1268; expressed using LyGo platform, purified to homogeneity, loaded with CuCl2
T6 sequence (Q47QG3 37-222): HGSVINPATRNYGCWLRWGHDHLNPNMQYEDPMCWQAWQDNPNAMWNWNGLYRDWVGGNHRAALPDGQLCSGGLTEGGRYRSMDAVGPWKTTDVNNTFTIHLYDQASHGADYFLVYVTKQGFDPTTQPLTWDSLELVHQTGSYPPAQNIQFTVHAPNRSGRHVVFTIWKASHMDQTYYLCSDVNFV

LsAA9A = biological target: T7, LsAA9A (Panus similis, UniProt A0A0S2GKZ1); conditions: 1 µM Cu-loaded enzyme, with or without DHA, 40 °C, 30 min
T7 construct: gene LPMO9A; gift from Novozymes, purified to homogeneity, loaded with CuCl2
T7 sequence (A0A0S2GKZ1 20-254): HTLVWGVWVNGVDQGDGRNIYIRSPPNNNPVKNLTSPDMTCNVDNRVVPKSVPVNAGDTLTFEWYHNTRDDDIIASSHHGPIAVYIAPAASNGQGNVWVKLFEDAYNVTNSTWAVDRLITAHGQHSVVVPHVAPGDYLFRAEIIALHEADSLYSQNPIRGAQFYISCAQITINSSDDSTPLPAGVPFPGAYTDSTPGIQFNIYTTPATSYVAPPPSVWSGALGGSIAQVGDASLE

O=C(O)c1ccccc1C(c1ccc(O)cc1)c1ccc(O)cc1 [rPHP, reduced phenolphthalein]
absorbance of PHP at 552 nm (CotA): did oxidise rPHP; however, the rPHP oxidising activity of these enzymes was not enhanced | absorbance of PHP at 552 nm (AnAA13): AnAA13 stands out with a relatively large rPHP oxidation without DHA | absorbance of PHP at 552 nm (SmAA10): All LPMOs tested oxidise rPHP in a DHA dependent reaction | absorbance of PHP at 552 nm (TtAA9): All LPMOs tested oxidise rPHP in a DHA dependent reaction | absorbance of PHP at 552 nm (MtL): did oxidise rPHP; however, the rPHP oxidising activity of these enzymes was not enhanced | absorbance of PHP at 552 nm (TfAA10A): All LPMOs tested oxidise rPHP in a DHA dependent reaction | absorbance of PHP at 552 nm (LsAA9A): All LPMOs tested oxidise rPHP in a DHA dependent reaction

Source: paper PMC7916272, “Colorimetric LPMO assay with direct implication for cellulolytic activity” (Biotechnology for Biofuels, 2021)
